{
  "source": "patent US20190209501A1",
  "about": "“COMPOSITIONS AND METHODS OF USE OF BETA-HYDROXY-BETA-METHYLBUTYRATE (HMB) […] IN[…]” (Texas Tech University Office of Research Commercialization, priority 2018, published 2019)",
  "assay": "Blood markers (lipids, glucose, insulin)",
  "type": "in vivo, human",
  "settings": "for Cholesterol Δ / Cholesterol Δ (%) / Glucose Δ / Glucose Δ (%) / HDL Δ / HDL Δ (%) / Insulin Δ / Insulin Δ (%) / LDL Δ / LDL Δ (%) / Triglycerides Δ / Triglycerides Δ (%) / VLDL Δ / VLDL Δ (%): baseline to W 8; for Cholesterol ES (d) / Glucose ES (d) / HDL ES (d) / Insulin ES (d) / LDL ES (d) / Triglycerides ES (d) / VLDL ES (d): effect size",
  "excerpt": "At baseline and after 4 and 8 weeks of the intervention, participants completed two testing sessions: (1) a morning assessment conducted after an overnight fast for assessment of body composition, metabolism, vascular measures and subjective factors: and (2) an afternoon assessment of muscular performance, conducted in the non-fasted state. For morning assessments, participants reported to the laboratory after abstention from eating, drinking, exercising and utilizing caffeine or nicotine for ≥8 hours. Participants were interviewed to confirm adherence to these pre-assessment restrictions. The actual abstention from exercise was ≥14 hours due to the scheduling of exercise sessions. Participants reported to the laboratory wearing athletic clothing, and all metal and accessories were removed from the body prior to testing. Each participant voided her bladder and provided a urine sample. Urine samples were assessed for urine specific gravity (USG) using a digital refractometer (PA201X-093. Misco, Solon, Ohio. USA). Additionally, a standard urinary HCG test was performed to confirm that each participant was not pregnant. Finally, urinary samples were frozen at −80° C. for assessment of urinary HMB content after study unblinding. After voiding, each participant's body mass (BM) and height were determined via digital scale with stadiometer (Seca 769, Hamburg, Germany). Blood draws were performed at Texas Tech University Student Health Services after an overnight fast, and participants completed at-home saliva collections for assessment of the cortisol awakening response (CAR).\nBlood samples collected by certified health professionals were transported via courier to a local clinical laboratory for analysis (University Medical Center Health System, Lubbock, Tex., USA). Testing was performed using standard instrumentation (Cobas 6000, Roche Diagnostics, Risch-Rotkreuz. Switzerland). Total cholesterol, triglycerides and HDL cholesterol were assessed using enzymatic colorimetric assays, and VLDL and non-HDL cholesterol were calculated. LDL cholesterol was calculated using the Martin-Hopkins equation (35). Glucose was measured using an enzymatic UV test, and insulin was assessed via electrochemiluminescence immunoassay. Results of the clinical laboratory analyses were provided to study investigators.",
  "data": [
    {"compound": "CC(C)(O)CC(=O)O", "note": "[TRFHMB, β-hydroxy-β-methylbutyrate]", "values": [
      {"measurement": "Cholesterol", "setting": "ITT, Baseline", "result": "178 ± 9", "unit": "mg/dL"},
      {"measurement": "Glucose", "setting": "ITT, Baseline", "result": "90 ± 3", "unit": "mg/dL"},
      {"measurement": "HDL", "setting": "ITT, Baseline", "result": "75 ± 4", "unit": "mg/dL"},
      {"measurement": "Insulin", "setting": "ITT, Baseline", "result": "10 ± 2", "unit": "mcU/mL"},
      {"measurement": "LDL", "setting": "ITT, Baseline", "result": "85 ± 7", "unit": "mg/dL"},
      {"measurement": "Triglycerides", "setting": "ITT, Baseline", "result": "95 ± 10", "unit": "mg/dL"},
      {"measurement": "VLDL", "setting": "ITT, Baseline", "result": "19 ± 2", "unit": "mg/dL"},
      {"measurement": "Cholesterol", "setting": "ITT, W 8", "result": "183 ± 11", "unit": "mg/dL"},
      {"measurement": "Glucose", "setting": "ITT, W 8", "result": "89 ± 3", "unit": "mg/dL"},
      {"measurement": "HDL", "setting": "ITT, W 8", "result": "68 ± 5", "unit": "mg/dL"},
      {"measurement": "Insulin", "setting": "ITT, W 8", "result": "13 ± 3", "unit": "mcU/mL"},
      {"measurement": "LDL", "setting": "ITT, W 8", "result": "97 ± 7", "unit": "mg/dL"},
      {"measurement": "Triglycerides", "setting": "ITT, W 8", "result": "85 ± 12", "unit": "mg/dL"},
      {"measurement": "VLDL", "setting": "ITT, W 8", "result": "17 ± 2", "unit": "mg/dL"},
      {"measurement": "Cholesterol Δ", "setting": "ITT", "result": 5, "unit": "mg/dL"},
      {"measurement": "Cholesterol Δ (%)", "setting": "ITT", "result": 3, "unit": "%"},
      {"measurement": "Glucose Δ", "setting": "ITT", "result": -1, "unit": "mg/dL"},
      {"measurement": "Glucose Δ (%)", "setting": "ITT", "result": "−1", "unit": "%"},
      {"measurement": "HDL Δ", "setting": "ITT", "result": -7, "unit": "mg/dL"},
      {"measurement": "HDL Δ (%)", "setting": "ITT", "result": "−9", "unit": "%"},
      {"measurement": "Insulin Δ", "setting": "ITT", "result": 3, "unit": "mcU/mL"},
      {"measurement": "Insulin Δ (%)", "setting": "ITT", "result": 30, "unit": "%"},
      {"measurement": "LDL Δ", "setting": "ITT", "result": 12, "unit": "mg/dL"},
      {"measurement": "LDL Δ (%)", "setting": "ITT", "result": 14, "unit": "%"},
      {"measurement": "Triglycerides Δ", "setting": "ITT", "result": -10, "unit": "mg/dL"},
      {"measurement": "Triglycerides Δ (%)", "setting": "ITT", "result": "−11", "unit": "%"},
      {"measurement": "VLDL Δ", "setting": "ITT", "result": -2, "unit": "mg/dL"},
      {"measurement": "VLDL Δ (%)", "setting": "ITT", "result": "−11", "unit": "%"},
      {"measurement": "Cholesterol ES (d)", "setting": "ITT", "result": 0.14},
      {"measurement": "Glucose ES (d)", "setting": "ITT", "result": "−0.09"},
      {"measurement": "HDL ES (d)", "setting": "ITT", "result": "−0.43"},
      {"measurement": "Insulin ES (d)", "setting": "ITT", "result": 0.27},
      {"measurement": "LDL ES (d)", "setting": "ITT", "result": 0.48},
      {"measurement": "Triglycerides ES (d)", "setting": "ITT", "result": "−0.25"},
      {"measurement": "VLDL ES (d)", "setting": "ITT", "result": "−0.28"},
      {"measurement": "Cholesterol", "setting": "PP, Baseline", "result": "168 ± 13", "unit": "mg/dL"},
      {"measurement": "Glucose", "setting": "PP, Baseline", "result": "92 ± 4", "unit": "mg/dL"},
      {"measurement": "HDL", "setting": "PP, Baseline", "result": "72 ± 5", "unit": "mg/dL"},
      {"measurement": "Insulin", "setting": "PP, Baseline", "result": "9 ± 3", "unit": "mcU/mL"},
      {"measurement": "LDL", "setting": "PP, Baseline", "result": "78 ± 9", "unit": "mg/dL"},
      {"measurement": "Triglycerides", "setting": "PP, Baseline", "result": "91 ± 14", "unit": "mg/dL"},
      {"measurement": "VLDL", "setting": "PP, Baseline", "result": "18 ± 3", "unit": "mg/dL"},
      {"measurement": "Cholesterol", "setting": "PP, W 8", "result": "183 ± 15", "unit": "mg/dL"},
      {"measurement": "Glucose", "setting": "PP, W 8", "result": "90 ± 4", "unit": "mg/dL"},
      {"measurement": "HDL", "setting": "PP, W 8", "result": "70 ± 6", "unit": "mg/dL"},
      {"measurement": "Insulin", "setting": "PP, W 8", "result": "10 ± 3", "unit": "mcU/mL"},
      {"measurement": "LDL", "setting": "PP, W 8", "result": "96 ± 9", "unit": "mg/dL"},
      {"measurement": "Triglycerides", "setting": "PP, W 8", "result": "80 ± 17", "unit": "mg/dL"},
      {"measurement": "VLDL", "setting": "PP, W 8", "result": "16 ± 3", "unit": "mg/dL"},
      {"measurement": "Cholesterol Δ", "setting": "PP", "result": 15, "unit": "mg/dL"},
      {"measurement": "Cholesterol Δ (%)", "setting": "PP", "result": 9, "unit": "%"},
      {"measurement": "Glucose Δ", "setting": "PP", "result": -2, "unit": "mg/dL"},
      {"measurement": "Glucose Δ (%)", "setting": "PP", "result": "−2", "unit": "%"},
      {"measurement": "HDL Δ", "setting": "PP", "result": -2, "unit": "mg/dL"},
      {"measurement": "HDL Δ (%)", "setting": "PP", "result": "−3", "unit": "%"},
      {"measurement": "Insulin Δ", "setting": "PP", "result": 1, "unit": "mcU/mL"},
      {"measurement": "Insulin Δ (%)", "setting": "PP", "result": 11, "unit": "%"},
      {"measurement": "LDL Δ", "setting": "PP", "result": 18, "unit": "mg/dL"},
      {"measurement": "LDL Δ (%)", "setting": "PP", "result": 23, "unit": "%"},
      {"measurement": "Triglycerides Δ", "setting": "PP", "result": -11, "unit": "mg/dL"},
      {"measurement": "Triglycerides Δ (%)", "setting": "PP", "result": "−12", "unit": "%"},
      {"measurement": "VLDL Δ", "setting": "PP", "result": -2, "unit": "mg/dL"},
      {"measurement": "VLDL Δ (%)", "setting": "PP", "result": "−11", "unit": "%"},
      {"measurement": "Cholesterol ES (d)", "setting": "PP", "result": 0.40},
      {"measurement": "Glucose ES (d)", "setting": "PP", "result": "−0.19"},
      {"measurement": "HDL ES (d)", "setting": "PP", "result": "−0.14"},
      {"measurement": "Insulin ES (d)", "setting": "PP", "result": 0.55},
      {"measurement": "LDL ES (d)", "setting": "PP", "result": 0.76},
      {"measurement": "Triglycerides ES (d)", "setting": "PP", "result": "−0.27"},
      {"measurement": "VLDL ES (d)", "setting": "PP", "result": "−0.30"}
    ]}
  ]
}
